From US20050124618A1, “Methods of modulating angiogenesis and cancer cell proliferation” (priority 2003, published 2005)
Entries after “also recorded” stand apart in the source; their conditions may differ.

Experiments:
20-HETE [1] = assay: 20-HETE formation in electrically stimulated skeletal (TA) muscle of rats; type: in vivo, rat; conditions: 7 days of electrical stimulation; chronic treatment
Method: (§1) Experimental protocols and tissue preparation: After a 24-h recovery period, the implanted stimulator was activated by momentary closure of the magnetic reed switch using a small hand-held magnet. […] Contractions of the extensor digitorum longus (EDL) and tibialis anterior (TA) muscles were automatically initiated at 9 AM each day and sustained for 8 h/day over a consecutive 7-day period. At the end of the stimulation period, the animals were euthanized by an overdose of pentobarbital sodium (100 mg/kg ip), and the EDL and TA muscles were harvested for analysis as previously described (Greene A S et al., Hypertension 15: 779-783, 1990; and Parmentier J H et al., Hypertension 37: 623-629, 2001).
The rats were divided in four groups. […] This dose was chosen based on our previous results (Kehl F et al., Am J Physiol Heart Circ Physiol 282: H1556-H1565, 2002).
To determine the contribution of VEGF to the angiogenesis induced by electrical stimulation, six rats in group 3 were treated with 3 mg/kg ip injections of a monoclonal VEGF-neutralizing antibody (Texas Biotechnology; Houston, Tex.) during the period of electrical stimulation. The protocol for administration of VEGF-neutralizing antibody was modified from Zheng W et al. (Circ Res 85: 192-198, 1999), and this dose was based on our previous results (Amaral S L et al., Microcirculation 8: 57-67, 2001). After the stimulation period was started, the rats received intraperitoneal injections on days 3, 5, and 7 (0.6 mg/100 g).
Muscle preparations for measurement of 20-HETE: The 100-200 mg of frozen TA muscle were homogenized in a solution containing 1 ml of acidified water and 50 μl of an internal standard, WIT-002, which was synthesized and kindly provided by Taisho Pharmaceutical. Ethyl acetate (3 ml, Fisher Scientific; Pittsburgh, Pa.) was added to the mixture and gently vortexed. The homogenized tissues were then centrifuged at 3,000 revolutions/min for 2 min. With the use of a glass Pasteur pipet, the top layer was removed and transferred to a sterile glass vial, and the samples were dried under nitrogen and stored at −80° C.
Labeling of samples and fluorescent detection of 20-HETE: Detection of 20-HETE was performed as previously described (Ma Y H et al., Am J Physiol Regul Integr Comp Physiol 267: R579-R589, 1994). Samples, which were extracted and dried under argon, were resuspended in 20 μl of acetonitrile containing 36.4 mM 2-(2,3-napthalimino)ethyl trifluoromethanesulfonate, and N,N-diisopropylethylamine (10 μl) was added as a catalyst. The sample was reacted for 30 min at room temperature, dried under argon, resuspended in 1 ml of 40% acetonitrile-water, and applied to a Sep-Pak Vac column. The column was washed with 6 ml of 50% acetonitrile-water solution to remove unreacted dye, eluted with 500 μl of ethyl acetate, dried under argon, and resuspended in 100 μl of the HPLC mobile phase [methanol-water-acetic acid, 82:18:0.1 (vol/vol)]. A 25-μl aliquot of the derivatized sample was separated on a 4.6×250-mm Symmetry C18 reverse-phase HPLC column (Waters) isocratically at a rate of 1.3 ml/min using methanol-water-acetic acid (82:18:0.1 (vol/vol)) as the mobile phase. Fluorescence intensity monitored using an in-line fluorescence detector (model number L-7480, Hitachi; Naperville, Ill.) at medium gain sensitivity. The amount of 20-HETE in the sample was determined by comparing the area of the 20-HETE peak with that of the internal standard (WIT-002).

20-HETE [2] = conditions: cited from earlier work
VEGF = assay: Western blot of VEGF protein expression in TA muscle; type: in vivo, rat
Method: Western blot analysis to detect the presence of VEGF protein: The 100-mg TA muscle specimens were homogenized, and the protein was suspended in potassium buffer (10 mM). Five micrograms of protein (as determined by a protein assay kit, Bio-Rad; Hercules, Calif.) from the TA and a tumor cell line known to express VEGF at high levels (C6, American Type Culture Collection, 107-CCL) were separated on a 12% denaturing polyacrylamide gel. The gels were transferred to a nitrocellulose membrane, which was blocked overnight in 5% nonfat dry milk diluted in Tris-buffered saline (50 mM Tris and 750 mM NaCl, pH 8) with 0.08% Tween 20 (Bio-Rad). The blots were then incubated with a […] antibody to a peptide derived from the human VEGF sequence (1:1,000 dilution, clone G143-850, Pharmingen) for 2 h at room temperature. Washed blots were then incubated with goat anti-mouse secondary antibody at a dilution of 1:1,000 for 1 h at room temperature and then subjected to a SuperSignal West Dura chemiluminescence substrate (Pierce; Rockford, Ill.) detection system. Membranes were exposed to X-ray film (Fuji Medical; Stamford, Conn.) for 15 to 30 s and developed using a Kodak M35 X-Omat processor. For the quantitative VEGF analysis, film was always exposed for a period of time that ensured that all signals were within the linear range of the detection of the film. The VEGF band intensity was quantified using a morphometry imaging system (Metamorph, Universal Imaging; West Chester, Pa.), and values are expressed as a percentage of the C6 tumor cell standard.

[3] = test system: extensor digitorum longus (EDL) and tibialis anterior (TA) muscles; assay: Vessel density of EDL and TA muscles after 7 days of electrical stimulation; type: in vivo, rat
Method: as §1
Tissue harvest and morphological analysis of vessel density: The stimulated and contralateral muscles were removed, weighed, and rinsed in physiological salt solution. A 300-mg sample was taken from the rostral portion of the TA muscle and frozen in liquid nitrogen for Western blot (100 mg) and HPLC (200 mg) analysis for measurement of VEGF protein expression and 20-HETE formation, respectively. The remaining TA and EDL muscles were lightly fixed in a 0.25% formalin solution overnight. The muscles were sectioned via a manual microtome to a thickness of about 100 μm by securing the tendons and slicing parallel to the longitudinal orientation of the muscle fibers. From every animal, two slices of each EDL muscle and three slices of each TA muscle were made. The slices were than immersed for 2 h in a solution of 25 μg/ml rhodamine-labeled Griffonia simplicifolia I (GS-I) lectin (Sigma; St. Louis, Mo. (Greene A S et al., Hypertension 15: 779-783, 1990)). Immediately after this 2-h exposure to GS-I lectin, the muscles were rinsed in physiological solution. The rinsing procedure was repeated after 15 and 30 min, and the muscles were rinsed in physiological saline solution for 12 h (overnight, at 4° C.). On the next day, the slices were mounted on microscope slides with a water-soluble mounting medium consisting of toluene and acrylic resin (SP ACCU-MOUNT 280, Baxter Scientific).
The labeled sections were visualized using a video fluorescent microscope system (Olympus ULWD CD Plan, ×20 objective, 1.6 cm working distance and 0.4 numerical aperture) with epi-illumination, as previously described (Parmentier J H et al., Hypertension 37: 623-629, 2001). In the present study, 10-15 and 20-25 representative fields were selected for study from each EDL and TA muscle slice, respectively. Each field was converted to a digitized image (DT2801 Data Translation; Marlboro, Mass.) and stored as an 8-bit/pixel image file with a resolution of 512×512 pixels. Morphometric analysis of the scanned histochemical sections was done as previously described (Parmentier J H et al., Hypertension 37: 623-629, 2001).
Data analysis and statistics: For each muscle, the vessel counts of all the selected fields (10-15 scans×2 slices for each EDL muscle; 20-25 scans×3 slices for each TA muscle) were averaged to a single vessel density. Vessel density was expressed in terms of the mean number of vessel-grid intersections per microscope field (0.224 mm^2). For each experimental group, the measured vessel density and 20-HETE formation of the stimulated muscle was compared with its unstimulated counterpart as well as with age-matched controls. All values are presented as means±SE. The significance of differences in values measured in the same animal was evaluated using a two-factor ANOVA (drug×stimulation) with repeated measures on one factor (stimulation). Significant differences were further investigated using a post hoc test (Tukey's).

[4] = chronic treatment, 7 days electrical stimulation

Compound: Nn1nnc2ccccc21 [ABT, 1-aminobenzotriazole]
- effect on the increase of 20-HETE formation induced by electrical stimulation (20-HETE [1]): blocked
- ability to reduce 20-HETE levels in vivo (20-HETE [2]): reduce 20-HETE levels in vivo
- effect on increases in VEGF protein expression induced by electrical stimulation (VEGF; 7 days stimulation): did not block
- effect on baseline VEGF expression (VEGF; 7 days treatment): Neither HET0016 nor ABT had any effect
- effect on the increase in vessel density (angiogenesis) induced by electrical stimulation ([3]; 7 days, HET0016 2 mg kg−1 day−1, ABT 50 mg kg−1 day−1): blocked; also recorded: attenuated
- vessel density, EDL, unstimulated side ([3]; chronic treatment, 7 days): 111±7.4 number of vessel intersections
- vessel density, TA, unstimulated side ([3]; chronic treatment, 7 days): 99.7±4.72 number of vessel intersections
- vessel density, EDL, stimulated side [3, 4]: 121±4.35 number of vessel intersections
- vessel density, TA, stimulated side [3, 4]: 119.5±4.51 number of vessel intersections
